Test results as given in patent US20250129095A1, “ANNULATED 2-AMINO-3-CYANO THIOPHENES AND DERIVATIVES FOR THE TREATMENT OF CANCER” (Boehringer Ingelheim Int'l GmbH Corp., priority 2021, published 2025).

Columns and labels:
[1] = molecular target: T1, KRAS (G12D)::SOS1 (Homo sapiens, UniProt P01116, G12D); assay: KRAS::SOS1 AlphaScreen binding assay, KRAS G12D; conditions: read-out: KRASG12D IC50
T1 construct: KRAS (G12D) 1-169, N-terminal 6His-tag, C-terminal avi-tag; 6His-tag (N); purchased Xtal BioStructures, Inc. (KRAS); Viva Biotech Ltd (SOS1)
Excerpt: This assay can be used to examine the potency with which compounds according to the invention binding to (mutated) KRAS inhibit the protein-protein interaction between SOS1 and (mutated) KRAS e.g., KRAS WT, KRAS G12C, KRAS G12D, KRAS G12V, KRAS G13D. […] Low IC50 values in this assay setting are indicative of strong inhibition of protein-protein interaction between SOS1 and KRAS:
These assays measure the inhibitory effect of compounds on KRAS mutant protein-protein interactions using the Alpha Screen technology by Perkin Elmer
The following (mutant) enzyme forms of KRAS and interacting proteins are used in these assays at the given concentrations: • KRAS (G12D) 1-169, N-terminal 6His-tag, C-terminal avi-tag (Xtal BioStructures, Inc.); final assay concentration 10 nM and SOS1 564-1049, N-terminal 229 GST-tag, TEV cleavage site (Viva Biotech Ltd); final assay concentration 5 nM; • KRAS (G12C) 1-169, N-terminal 6His-tag for purification, cleaved off, C-terminal avi-tag, biotinylated, mutations: C51S, C80L, C118S (in house); final assay concentration 7.5 nM and SOS1 564-1049, N-terminal 229 GST-tag, TEV cleavage site (Viva Biotech Ltd); final assay concentration 5 nM; • KRAS (G12V) 1-169, N-terminal 6His-tag for purification, cleaved off, C-terminal avi-tag, biotinylated, TEV cleavage site, mutation: C118S, GDP loaded (in house); final assay concentration 10 nM and SOS1 564-1049, N-terminal 229 GST-tag, TEV cleavage site (Viva Biotech Ltd); final assay concentration 10 nM; • KRAS (G13D) 1-169, N-terminal 6His-tag for purification, cleaved off, C-terminal avi-tag, biotinylated, TEV cleavage site, mutation: C118S, GDP loaded (in house); final assay concentration 10 nM and SOS1 564-1049, N-terminal 229 GST-tag, TEV cleavage site (Viva Biotech Ltd); final assay concentration 10 nM; • KRAS (WT) 1-169, N-terminal 6His-tag for purification, cleaved off, C-terminal avi-tag, biotinylated, TEV cleavage site, mutation: C118S, GDP loaded (in house); final assay concentration 10 nM and SOS1 564-1049, N-terminal 229 GST-tag, TEV cleavage site (Viva Biotech Ltd); final assay concentration 10 nM.
Test compounds dissolved in DMSO are dispensed onto assay plates (Proxiplate 384 PLUS, white, PerkinElmer; 6008289) using an Access Labcyte Workstation with the Labcyte Echo 55×. For the chosen highest assay concentration of 100 μM, 150 nL of compound solution are transferred from a 10 mM DMSO compound stock solution. A series of eleven fivefold dilutions per compound are transferred to the assay plate, compound dilutions are tested in duplicates. DMSO are added as backfill to a total volume of 150 nL.
The assays run on a fully automated robotic system in a darkened room below 100 Lux. To 150 nl of compound dilution 10 μl of a mix including KRAS mutant protein, SOS1 (final assay concentrations see above) and GDP nucleotide (Sigma G7127; final assay concentration 10 μM) in assay buffer (1×PBS, 0.1% BSA, 0.05% Tween 20) are added into columns 1-24.
After 30 minutes incubation time 5 μl of Alpha Screen bead mix in assay buffer are added into columns 1-23. Bead mix consists of AlphaLISA Glutathione Acceptor Beads (PerkinElmer, Cat No AL109) and AlphaScreen Streptavidin Donor Beads (PerkinElmer Cat No 6760002) in assay buffer at a final assay concentration of 10 μg/ml each.
Plates are kept at room temperature in a darkened incubator. After an additional 60 minutes incubation time the signal is measured in a PerkinElmer Envision HTS Multilabel Reader using the AlphaScreen specs from PerkinElmer.
Each plate contains up to 16 wells of a negative control depending on the dilution procedure (platewise or serial) (DMSO instead of test compound; with KRAS mutant::SOS1 GDP mix and bead mix; column 23) and 16wells of a positive control (DMSO instead of test compound; with KRAS mutant::SOS1 GDP mix w/o bead mix; column 24).
As internal control known inhibitors of KRAS mutant::SOS1 interaction can be measured on each compound plate. […]

[2] = molecular target: KRAS G12C Ba/F3 (Homo sapiens, UniProt P01116, G12C, cells depend on it); assay: Ba/F3 proliferation assay, KRAS G12C; assay type: cell-based; conditions: 72 h, AlamarBlue, read-out: KRAS G12C Ba/F3 IC50
Protocol: Plasmids containing KRASG12 mutants(i.e. G12D, G12C, G12V) are obtained from GeneScript. To generate KRASG12-dependent Ba/F3 models, Ba/F3 cells are transduced with retroviruses containing vectors that harbor KRASG12 isoforms. Platinum-E cells (Cell Biolabs) are used for retrovirus packaging. Retrovirus is added to Ba/F3 cells. To ensure infection, 4 μg/mL polybrene is added and cells are spinfected. […] Cells with an infection efficiency of 10% to 20% are further cultivated and puromycin selection with 1 μg/mL is initiated. As a control, parental Ba/F3 cells are used to show selection status. Selection is considered successful when parental Ba/F3 cells cultures died. To evaluate the transforming potential of KRASG12 mutations, the growth medium is no longer supplemented with IL-3. Ba/F3 cells harboring the empty vector are used as a control. Approximately ten days before conducting the experiments, puromycin is left out.
Compounds are added using an Access Labcyte Workstation with a Labcyte Echo 550 or 555 accoustic dispenser. All treatments are performed in technical duplicates. […] AlamarBlue™ (ThermoFisher), a viability stain, is added and fluorescence measured in the PerkinElmer Envision HTS Multilabel Reader. The raw data are imported into and analyzed with the Boehringer Ingelheim proprietary software MegaLab (curve fitting based on the program PRISM, GraphPad Inc.).

[3] = test system: LOVO cells; assay: LOVO CTG proliferation assay (120 h) (CRC, G13D); assay type: cell-based; conditions: Homo sapiens
Protocol: LOVO cells (ATCC CCL-229) are dispensed into 384-well plates, flat and clear bottom (Greiner, PNr. 781091) at a density of 1000 cells per well in 60 μL DMEM (Sigma D6429)+10% Fetal Calf Serum (HyClone, PNr.: SH30084.03) and incubated at 37° C. in a CO2 incubator overnight. The next day, compounds (10 mM stock in DMSO) are added with the ECHO acoustic liquid handler system (Beckman Coulter), including DMSO controls. Plates are incubated for 120 h, and cell viability is measured using CellTiter-Glo luminescent cell viability reagent (Promega product code G7570). Viability (stated as percent of control) is defined as relative luminescence units RLU of each well divided by the RLU of cells in DMS0 controls. IC50 values are determined from viability measurements by non-linear regression using a four-parameter model.

Sequence of KRAS G12C Ba/F3 (P01116 whole entry G12C, canonical isoform): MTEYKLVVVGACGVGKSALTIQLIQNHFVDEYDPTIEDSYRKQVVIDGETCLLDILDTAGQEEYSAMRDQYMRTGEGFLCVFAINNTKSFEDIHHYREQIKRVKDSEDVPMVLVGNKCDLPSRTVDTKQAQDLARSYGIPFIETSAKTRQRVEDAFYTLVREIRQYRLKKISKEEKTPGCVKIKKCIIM
T1 sequence (P01116 1-169 isoform P01116-2 G12D): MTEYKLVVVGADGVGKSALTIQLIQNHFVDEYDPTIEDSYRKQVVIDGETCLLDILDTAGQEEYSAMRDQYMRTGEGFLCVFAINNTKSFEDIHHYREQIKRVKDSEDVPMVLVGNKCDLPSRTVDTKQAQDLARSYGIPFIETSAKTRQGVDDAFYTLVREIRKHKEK

SMILES: C[C@H](Oc1cc(O[C@H]2CN(C)C(C)(C)C2)nc(-c2noc3c2CCC[C@@]32CCCc3sc(N)c(C#N)c32)n1)[C@@H]1CCCN1C [II-19]
- IC50 [1]: 1 nM
- GI50 [2]: 218 nM
- IC50 [3]: 344 nM

SMILES: C[C@H](Oc1cc(N(C)CCN(C)C)nc(-c2noc3c2CCC[C@@]32CCCc3sc(N)c(C#N)c32)n1)[C@@H]1CCCN1C [II-20]
- IC50 [1]: 2 nM
- GI50 [2]: 376 nM
- IC50 [3]: 139 nM

SMILES: C[C@H](Oc1cc(OCC2(N(C)C)CC2)nc(-c2noc3c2CCC[C@@]32CCCc3sc(N)c(C#N)c32)n1)[C@@H]1CCCN1C [II-21]
- IC50 [1]: 1 nM
- GI50 [2]: 195 nM
- IC50 [3]: 186 nM

SMILES: C[C@H](Oc1cc(OCC2(N(C)C)COC2)nc(-c2noc3c2CCC[C@@]32CCCc3sc(N)c(C#N)c32)n1)[C@@H]1CCCN1C [II-22]
- IC50 [1]: 1 nM
- GI50 [2]: 22 nM
- IC50 [3]: 39 nM

SMILES: COc1c(OCC2(N(C)C)COC2)nc(-c2noc3c2CCC[C@@]32CCCc3sc(N)c(C#N)c32)nc1O[C@@H](C)[C@@H]1CCCN1C [II-25]
- IC50 [1]: 1 nM
- GI50 [2]: 85 nM
- IC50 [3]: 35 nM

SMILES: C[C@H]1CN(C)CCCN1c1cc(O[C@@H]2CNC2(C)C)nc(-c2noc3c2CCC[C@@]32CCCc3sc(N)c(C#N)c32)n1 [II-28]
- IC50 [1]: 1 nM
- GI50 [2]: 2080 nM
- IC50 [3]: 3380 nM

SMILES: C[C@H](Oc1cc(O[C@@H]2CNC[C@@H]2F)nc(-c2noc3c2CCC[C@@]32CCCc3sc(N)c(C#N)c32)n1)[C@@H]1CCCN1C [II-29]
- IC50 [1]: 1 nM
- GI50 [2]: 79 nM
- IC50 [3]: 216 nM

SMILES: CO[C@@H]1C[C@@H]([C@H](C)Oc2cc(O[C@@H]3CNC3(C)C)nc(-c3noc4c3CCC[C@@]43CCCc4sc(N)c(C#N)c43)n2)N(C)C1 [II-30]
- IC50 [1]: 1 nM
- GI50 [2]: 219 nM
- IC50 [3]: 130 nM

SMILES: C[C@H](Oc1cc(O[C@@H]2CNC2(C)C)nc(-c2noc3c2CCC[C@@]32CCCc3sc(N)c(C#N)c32)n1)[C@@H]1C[C@@H](F)CN1C [II-31]
- IC50 [1]: 1 nM
- GI50 [2]: 203 nM
- IC50 [3]: 202 nM
